This is an account of results in patent US6433220B1 (RPC Inc., priority 1998, dated 2002).

Like-named read-outs stand apart in the source and are kept apart here.

For data set [1] the following is noted: cited from earlier work; for EN (normalized solvent polarity parameter): water and tetramethylsilane as extreme reference solvents; for ET (solvent polarity parameter): solvatochromic absorption of betaine dye.
For data set [2] the following is noted: cited from earlier work.
A short description of data set [3]: Solubility of cobalt ion in the combination solvent. Type of data set: physicochemical. The settings on record: cyclohexanone/water combination solvent. The source says:
The above profound and unexpected attributes (considerable increase of dibasic acid solubility combined with considerable decrease of cobalt ion solubility in the novel combination solvent) are primarily responsible for a clean extraction of the cobalt ion with water from the rest of the reaction mixture, which remains dissolved in the combination solvent of the instant invention.

As for `O=C1CCCCC1` [Cyclohexanone], in data set [1], the “EN (normalized solvent polarity parameter)” value is recorded as 0.281. For the same molecule, the “mol % CHxO (solubility of cyclohexanone in water)” value in data set [2] (20 °C) is 1.98% mol %; in data set [2] (25 °C), 1.85% mol %; in data set [2] (30 °C), 1.73% mol %; in data set [2] (50 °C), 1.43% mol %; in data set [2] (70 °C) it was 1.34% mol %; in data set [2] (90 °C), 1.44% mol %. Also, the “wt % CHxO (solubility of cyclohexanone in water)” value in data set [2] (20 °C) was 10.00% wt %; in data set [2] (25 °C), 9.39% wt %; in data set [2] (30 °C), 8.83% wt %; in data set [2] (50 °C), 7.39% wt %; in data set [2] (70 °C), 6.95% wt %; in data set [2] (90 °C) it was 7.44% wt %.
In the case of `CCO` [Ethanol], the “EN (normalized solvent polarity parameter)” value in data set [1] was 0.654.
`CO` [Methanol]: the “EN (normalized solvent polarity parameter)” value in data set [1] is recorded as 0.762.
Consider `c1ccc(Oc2ccccc2)cc1` [diphenyl ether], for which, in data set [1], the “ET (solvent polarity parameter)” value was 35.3 kcal/mol.
As to `O` [Water], in data set [1], the “ET (solvent polarity parameter)” value was 63.1 kcal/mol and the “EN (normalized solvent polarity parameter)” value is reported as 1.000.
For cobalt ion, the “solubility of the cobalt ion in the novel combination solvent” value in data set [3] is given as “decreases considerably”.
On to `CC(=O)O` [Acetic acid], for which the “EN (normalized solvent polarity parameter)” value in data set [1] is reported as 0.648.
Consider `CCCCCC` [n-Hexane], for which, in data set [1], the “EN (normalized solvent polarity parameter)” value is recorded as 0.009.
On to `OC1CCCCC1` [Cyclohexanol], for which the “EN (normalized solvent polarity parameter)” value in data set [1] is 0.500.
`C1CCCCC1` [Cyclohexane]: the “EN (normalized solvent polarity parameter)” value in data set [1] is given as 0.006.
